From a melting point compilation (Tetko et al.; mined from patent text by program, amines drawn as free bases though some values may be those of a salt)

| melting point [°C] | SMILES |
| --- | --- |
| 123 to 125 | CCC(OC)(c1cccc(OCc2cc3ccccc3n(C)c2=O)c1)c1nccs1 (stereo unspecified) |
| 235 to 237 | CC(C)(C)OC(=O)NCC12CN(c3cc4c(cc3F)c(=O)c(C(=O)O)cn4C3CC3)CC1CCO2 (stereo unspecified) |
| 172 to 174 | O=C(O)C1=CCC2CC(=O)N12 (stereo unspecified) |
| 121 to 122 | Nc1sc2c(c1C(=O)c1ccco1)CCCC2 |
| 131 to 133 | CCCc1cc(OCC)c2c(c1OC)S(=O)(=O)N(CCl)C2=O |
| 335 to 338 | COc1cc(C=C2SC(N3CCOCC3)=NC2=O)cc(-c2ccc(O)c(C34CC5CC(CC(C5)C3)C4)c2)c1O |
| 124 to 125 | CC(C)(C)OC(=O)N1CCCC[C@@H]1C(=O)c1ccc(Br)cc1 |
| 117 to 118 | O=C(OC#CCc1ccccc1)C1CN=CNC1 (stereo unspecified) |
| 124 | Cc1cccc(-c2n[nH]cc2-c2ccc(F)c(-c3cnn(CCN4CCOCC4)c3)c2)n1 |
| 186 to 187 | COc1cccc(CN2CCCCC2C(=O)O)c1 (stereo unspecified) |
| 89 to 92 | CCC1(CC(O)(CBr)c2ccccc2)C(=O)c2ccccc2C1=O (stereo unspecified) |
| 120 to 121 | Cc1c(C)c2c(c(C)c1N)OC(C)(C)C2c1ccc(C(C)C)cc1 (stereo unspecified) |
| 149 to 150 | O=C(Cc1ccc(-c2ccc(F)cc2F)c(F)c1)NO |
| 144 to 146 | CC(=O)SCCC(=O)N1C(C(=O)O)CC(=O)N1c1ccccc1 (stereo unspecified) |
| 45 to 47 | CCCC(=Cc1cccc([N+](=O)[O-])c1)[N+](=O)[O-] |
| 146 | Cn1c(=O)n(-c2cc([N+](=O)[O-])c(Cl)cc2F)c(=S)n1C |
| 115 to 118 | COc1ccccc1NC(=O)Nc1nc(N2CCN(c3ccccc3OC(C)C)CC2)nc(N(CCC(=O)O)Cc2ccc(Cl)c(Cl)c2)n1 |
| 119 to 121 | COC1(c2cccc(S(=O)(=O)c3ccc(N(C)C(C)=O)c(Cl)c3)c2)CCOCC1 |
| 117 to 118 | C=CCC1=C(O)C(C)=CC(C)(OC(C)=O)C1C (stereo unspecified) |
| 74.5 to 76 | COc1ccc(/C=C2\C3=C(CCCC3)CCN2C(C)=O)cc1 |
| 108 | Cc1ccc(Cn2nc(Br)c([N+](=O)[O-])c2NCc2ccccc2)cc1 |
| 150 to 151 | O=[N+]([O-])c1ccccc1-c1ccc(CNc2nc(C(F)(F)F)nc3c2CCCC3)cc1 |
| 195 to 196 | Cc1ccc(N2CN(Cc3ccccc3)C3=NN=CC3=C2N)cc1 |

| melting point [°C] | SMILES |
| --- | --- |
| 137 to 138 | CCOC(=O)COC1CCN(C(=O)[C@H](C)OCc2ccc(C(N)=NO)cc2)CC1 |
| 170 to 171 | Cc1ccnc(C(=O)c2[nH]c3cc(Cl)ccc3c2NC(=O)CCN(C)C)c1 |
| 151 to 153 | NS(=O)(=O)c1c(Cl)cccc1-c1ccccc1Cl |
| 134 to 136 | Cc1ccc(OC2COc3ccc(OCc4ccc5ccccc5n4)cc3C2O)cn1 (stereo unspecified) |
| 162 to 164 | COC(=O)c1ccc2c(c1)CCC(C(N)=O)C2 (stereo unspecified) |
| 126 | CCCCCc1c(C(C)C)cc(C(C)C)c(C(C)O)c1-c1ccc(F)cc1 (stereo unspecified) |
| 100 to 101 | COc1ccc(C(=CC#N)c2cccc(N)c2)cc1OC |
| 48 to 53 | CCOC(=O)COc1nccc(-c2ccccn2)n1 |
| 190 to 193 | O=C(Nc1ccc2[nH]c(=O)oc2c1)C(=O)N1CCC(Cc2ccccc2)CC1 |
| 96 to 98 | CCc1nn(-c2c(Cl)cc(C(F)(F)F)cc2Cl)c(CC)c1Cc1c(OC)ccc2ccccc12 |
| 108 | N#CC(C#N)(Cc1ccc(Cl)cc1)C1CCCCC1 |
| 119 to 121 | CC1=C(C(=O)Nc2cccc(C#N)c2)SCCO1 |
| 189 to 190 | CCCCOc1nc(N)c2[nH]c(=O)n(CCCCN(Cc3cccc(CC(=O)O)c3)CC(C)(C)CN(C)C)c2n1 |
| 222 to 223 | O=C(O)c1cccc(-c2ccc3c(c2)N(c2ccc(Cl)cc2Cl)CCO3)c1 |
| 294 to 295 | COc1ccc(-c2cc3c(Nc4cccc(Cl)c4)ncnc3[nH]2)cc1 |
| 64 to 64.3 | CCCCCCNC(=O)C#CBr |
| 238 to 240 | CCCc1nnc2n1N=C(c1ccc([N+](=O)[O-])cc1)c1cc(OC)c(Br)cc1C2 |
| 99.5 to 101 | COc1ccc2c(c1)C(=O)OCN2c1ccccc1 |
| 99 to 101 | COC(=O)c1c(C)nc(C)c(C(=O)OC)c1-c1ccccc1[N+](=O)[O-] |
| 207 to 209 | O=C(O)c1cc(-c2ccccc2)cc2c(-c3ccccc3)c([N+](=O)[O-])oc12 |
| 122 to 125 | CN(C)Cc1cccc(CSCCNC2=NS(=O)N=C2N)c1 (stereo unspecified) |
| 142 to 144 | CCOc1nc2ccccc2nc1N(CC)C(=O)N1CCN(c2cc(C)cc(C)c2)CC1 |
| 118 to 121 | CC1(C)CC(NCC(O)COc2ccc(C(=O)c3ccccc3)c(O)c2)CC(C)(C)N1OC1CCCCC1 (stereo unspecified) |

| melting point [°C] | SMILES |
| --- | --- |
| 184 to 185 | O=C1CN(Cc2cnc(-c3ccc(C(CC4CCOCC4)c4ccc(S(=O)(=O)C5CC5)cc4)[nH]3)s2)C(=O)N1 (stereo unspecified) |
| 144 | O=[N+]([O-])c1ccc(NCCCn2ccnc2)c(F)c1 |
| 68 to 70 | CCC1(CC)NC(=O)C(CC)(CC)N1 |
| 142 | N#CN1CCC2(CC1)C(=O)c1cc(Cl)ccc1Sc1ccccc12 |
| 167 to 169 | CCOC(=O)c1cn(-c2c(F)cc(F)c([N+](=O)[O-])c2F)c2c(Cl)c(F)c(F)cc2c1=O |
| 228 to 229 | COc1cc2c(cc1OC)C(c1c(Cl)cccc1Cl)NC(=O)C2 (stereo unspecified) |
| 232 to 234 | Cc1cc(I)ccc1NC1=CC2=NCN(C)C2=CC1(F)C(=O)NN (stereo unspecified) |
| 198 to 201 | Cc1nc(N2CCN(CCc3c[nH]c4ccccc34)C2=O)sc1C(=O)NCc1cccnc1 |
| 102 to 104 | O=C(CN1CCC(Cc2ccccc2)CC1)Nc1cccc([N+](=O)[O-])c1 |
| 70 to 72 | COc1ccc(C(=O)c2cc(OC)ccc2O)cc1 |
| 143 to 144 | CC(=O)c1cc2c(cc1NC(=O)c1cccc3ccccc13)OCO2 |
| 151 to 152 | O=C(Nc1cccc(Br)n1)c1cc(-c2ccc(F)cc2)n(C2CCCCO2)n1 (stereo unspecified) |
| 175 | CCCCCCCCS(=O)Cc1c(C)c(O)c(C)c(CS(=O)CCCCCCCC)c1C (stereo unspecified) |
| 285 | Cn1nc(-c2cnc(N)nc2-c2cccc(O)c2)ccc1=O |
| > 275 | O=C(Nc1nc(-c2ccccc2)c(-c2nc3ccccc3c(=O)n2-c2ccc(Cl)cc2)s1)c1ccccc1 |
| 171 | CC(C)(C)C(O)C(C(Sc1ccccc1)c1ccc(F)cc1)n1cncn1 (stereo unspecified) |
| 170 | O=c1nc(-c2cccc(Cl)c2)c2cc(C(c3ccc(Cl)cc3)n3ccnc3-c3ccccc3)ccc2[nH]1 (stereo unspecified) |
| 147 to 148 | COC(=O)CCc1oc(=O)[nH]c1-c1ccc(Cl)cc1 |
| 212 to 213 | CCOC(=O)c1cc(C#N)c(C)nc1O |
| 169 to 170 | O=C(O)c1ccc(C2(C(=O)Oc3ccc(C(=O)NO)cc3)CCCCC2)cc1 |
| 98 to 100 | CCN(CC)CCOc1ccc(NC(=O)C#Cc2ccc(Cl)cc2Cl)cc1Cl |
| 135 to 148 | CCNC(=O)C1=C([Si](C)(C)C)S(=O)(=O)c2ccccc21 |
| 179 to 182 | CC(C)CC(=O)Nc1cccc(-c2ccnc3c(-c4cccc(CN(C)C)c4)cnn23)c1 |

| melting point [°C] | SMILES |
| --- | --- |
| 279 to 280 | O=C(Nc1cnc2c(c1)nc1n2CCC1O)c1cc2cc(C(F)(F)F)cnc2n1Cc1cccc(F)c1 (single isomer, unassigned; (-)) |
| 275 | O=c1[nH]cnc2cc3c(cc12)OCCO3 |
| 62 | CCCO[C@@H]1C[C@@H](C(=O)NC)N(S(=O)(=O)c2ccc(Cl)c(CBr)c2Cl)C1 |
| 134 to 136 | C/C(=C\C=C\C#N)c1ccc(OCc2nc(-c3ccccc3)oc2C)cc1 |
| 108 to 110 | CO[C@H]1c2ccn3c(C)c(C)nc3c2N[C@H](c2ccccc2)[C@H]1O |
| 168 to 170 | CC(C)(C)c1cc(SCCOC(=O)c2cc(C(C)(C)C)c(OC(=O)c3cc(C(C)(C)C)c(O)c(C(C)(C)C)c3)c(C(C)(C)C)c2)cc(C(C)(C)C)c1O |
| 51 to 54 | COc1cc(OC)nc(NC(=O)OC(C)C)n1 |
| 138 to 140 | Cc1ccc(N)cc1Nc1nccc(-c2cccnc2)n1 |
| 147 to 148 | Cc1ccc(C(=O)Nc2ccccc2)cc1[N+](=O)[O-] |
| 135 to 138 | CC(=O)OCc1cc2c(Cl)ccc(-n3c(=O)cc(C(F)(F)F)n(C)c3=O)c2o1 |
| 126 to 129 | CCc1nc2c(cnn2CC)c(NC2CCOCC2)c1CNC(=O)c1cccc(C(=O)NCc2ccc(F)c(-c3cccc(CN(C)CCN(C)C)c3)c2)c1 |
| 146 to 147 | CCOC(=O)c1cn(CC)c2nc(N3CCN(C)CC3)ncc2c1=O |
| 166 to 167 | CC(C)(C)OC(=O)N1CCN(C(=O)N2CC(=O)Nc3ccccc32)CC1 |
| 227 to 228 | O=C(Nc1c[nH]nc1C(=O)NCc1ccc(-c2ccccc2)cc1)c1ccccn1 |
| 93.5 to 94 | CCc1cc([N+](=O)[O-])cc(C=O)c1O |
| 112 | O=C1C=C(c2ccc(Cl)c(Cl)c2)C(=O)O1 |
| 149 to 151 | CCc1nc2c(C)cc(C)nc2n1Cc1ccc(C(=C(Br)c2nnn[nH]2)c2ccccc2)cc1 |
| 172 | O=C1c2cccc(OC(F)=C(F)F)c2C(=O)N1c1ccc(OC(F)=C(F)F)cc1 |
| 112 to 114 | Cc1nc2ccccn2c(=O)c1CC1CCCCC1 |
| 176 to 177 | CC(C)Cn1c(CO)c(-c2ccccc2)c2cc(Br)ccc2c1=O |
| > 250 | CC(C)OC(=O)c1cc(O)cc2cc(-c3ccc(O)cc3)oc12 |
| 178 to 180 | CC(C)CNC(=O)[C@H](C)C[C@H](O)[C@H](CC1CCCCC1)NC(=O)[C@H](Cc1cscn1)NC(=O)OC(C)(C)C |

| SMILES | melting point [°C] |
| --- | --- |
| CN1Cc2c(-c3nnc(CCl)o3)ncn2-c2cccc(Cl)c2C1=O | 201 to 203 |
| COC(=O)c1ccc2c(c1)Sc1ccccc1N=C2Cl | 134 to 136 |
| O=C(CCl)Cc1nc2ccccc2c(=O)n1-c1ccc(Cl)cc1 | > 275 |
| COc1ccc(Cc2ncc[nH]2)cc1 | 158 to 160 |
| O=C(c1cccc(O)c1)c1nn(C2CCCC2)c2c(C(F)(F)F)cccc12 | 152 |
